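Five concentrations, 48 hours, 96-well plates. The concentration for 50% growth inhibition is given as GI50. At the TGI there is no net growth.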
Assays:
Experiment in all cases: NCI-60 cell line screen, 48 h
KM12 colon = test system: KM12 colon
HOP-62 NSCLC = test system: HOP-62 NSCLC
SF-539 CNS = test system: SF-539 CNS
NCI-H460 lung = test system: NCI-H460 lung
786-0 renal = test system: 786-0 renal
OVCAR-4 ovarian = test system: OVCAR-4 ovarian
LOX IMVI melanoma = test system: LOX IMVI melanoma
RPMI-8226 leukemia = test system: RPMI-8226 leukemia
MDA-MB-231 breast = test system: MDA-MB-231 breast
SR leukemia = test system: SR leukemia

Structure (SMILES)	GI50 (KM12 colon) [µM]	TGI (KM12 colon) [µM]	GI50 (HOP-62 NSCLC) [µM]	TGI (HOP-62 NSCLC) [µM]	GI50 (SF-539 CNS) [µM]	TGI (SF-539 CNS) [µM]	GI50 (NCI-H460 lung) [µM]	TGI (NCI-H460 lung) [µM]	GI50 (786-0 renal) [µM]	TGI (786-0 renal) [µM]	GI50 (OVCAR-4 ovarian) [µM]	TGI (OVCAR-4 ovarian) [µM]	GI50 (LOX IMVI melanoma) [µM]	TGI (LOX IMVI melanoma) [µM]	GI50 (RPMI-8226 leukemia) [µM]	TGI (RPMI-8226 leukemia) [µM]	GI50 (MDA-MB-231 breast) [µM]	TGI (MDA-MB-231 breast) [µM]	TGI (SR leukemia) [µM]	GI50 (SR leukemia) [µM]
O=C1CCS/C(=N\S(=O)(=O)c2ccc(N3N=C4c5ccccc5CC4C3c3cccs3)cc2)N1C(=O)c1ccccc1 (stereo unspecified)	29.4	83.1	31.1	> 100	2.38	> 100	26.6	> 100	14.1	27.2	> 100	> 100	7.61	23.8	5.86	> 100	5.77	26.8	–	–
COc1ccc(-c2c(N)[n+]([O-])c3ccccc3[n+]2[O-])cc1OC	–	> 100	–	> 100	–	> 100	–	> 100	–	> 100	–	> 100	–	–	–	> 100	–	–	> 100	–
CCC(C(=O)c1ccccc1)C(CCCC(=O)Nc1c(C)cccc1C)N=O (stereo unspecified)	–	> 100	–	> 100	–	> 100	–	> 100	–	> 100	–	> 100	–	–	–	> 100	–	–	> 100	–
Cc1c2c(cc3c(=O)ccn(CCN(C)C)c13)c(=O)ccn2CCN(C)C	–	13.9	–	29.1	–	29.7	–	14.1	–	17.5	–	18.6	–	25.3	–	–	–	–	37.6	–
Nc1ncnc2c1cnn2Cc1ccc(Cl)cc1	–	> 100	> 100	> 100	67.4	> 100	–	> 100	> 100	> 100	–	> 100	–	> 100	> 100	> 100	–	> 100	–	–
O=C(Nc1cccc(-n2cc(-c3ccncc3)c(-c3ccc(O)c(Cl)c3)n2)c1)Nc1cccc(C(F)(F)F)c1	1.72	3.48	2.75	8.36	1.64	5.18	2.64	–	2.15	9.2	–	–	2.11	5.87	1.77	5.13	2.24	16.9	4.71	1.02
CCOC(=O)c1cc(C(=O)c2cc(OC)c(OC)c(OC)c2)n2ccccc12	0.0744	> 100	0.241	> 67.9	0.103	0.863	0.0772	> 100	0.739	> 42.7	–	–	0.133	> 100	0.121	> 100	2.81	> 100	> 100	0.041
S=c1nc(N2CCCCC2)ss1	–	33.9	–	64.6	–	36.6	–	80.5	–	48.1	–	> 100	–	–	–	18	–	–	45.4	–
O=C(NCc1ccncc1)C1COc2cc(-c3cc(=O)c4ccccc4o3)ccc2O1 (stereo unspecified)	–	> 100	–	> 100	–	> 100	–	> 100	–	> 100	–	> 100	–	> 100	–	–	–	–	> 100	–
